Reference: patent publication US20130274246A1, “Therapeutic Treatment for Metabolic Syndrome, Type 2 Diabetes, Obesity, or Prediabetes” (priority 2010, published 2013)

Experiments:
Format in all cases: in vivo
[1] = system: high fat fed, hypertensive SHR rats; assay: Quinelorane and fusaric acid, alone and combined, in high fat fed hypertensive SHR rats (Example 5); settings: SHR rats on high fat diet, Q 0.075 mg/kg, FA 12.5 mg/kg
Method: Male SHR rats were maintained on 14 hour daily photoperiods and fed a high fat diet (60% of energy from fat; 5.24 kcal/gram weight) for 3 weeks and then divided into different groups and treated with either quinelorane (Q; a dopamine D2/D3 mixed receptor agonist) (0.075 mg/kg), fusaric acid (FA; a dopamine beta hydroxylase inhibitor) (12.5 mg/kg), quinelorane (0.075 mg/kg) plus FA (Q/FA) (12.5 mg/kg), or vehicle at 13 hours after light onset for 17 days. The doses of Q and FA were set at less than half maximal to effect central dopamine receptor binding functions and dopamine beta hydroxylase activity, respectively. […] Blood pressure measurements were taken at 14 days of treatment and animals were sacrificed at 18 days of treatment for analyses of body fat and humoral factors and metabolites. […] Respecting blood glucose, although both Q and FA reduced glucose level relative to vehicle, only the Q/FA regimen normalized blood glucose in these animals relative to vehicle (FIG. 6).

[2] = system: female mice fed a high fat diet for 20 weeks; assay: GBR 12909 and FA, alone and combined, 14 days in high fat diet mice (Example 9); settings: GBR 12909 10 mg/kg, FA 15 mg/kg, FIG. 11
Method: Female mice at 4 weeks of age were fed a high fat diet for 20 weeks to induce diabetes and insulin resistance and continued on such diet while treated for 14 days with either GBR 12909 (10 mg/kg), FA (15 mg/kg), GBR 12909 (10 mg/kg) plus FA (15 mg/kg), or vehicle and sacrified after 14 days of treatment for the analyses of body fat, blood glucose, plasma insulin, and plasma nitric oxide levels. The composite of body fat store level, blood glucose and plasma insulin was reduced the greatest in the GBR/FA group and by a magnitude more than additive of the individual GBR and FA groups combined. Only the GBR/FA group normalized plasma insulin levels. […] This effect was not observed with either GBR or FA treatments alone. Also, there was no desensitization to this dopamine enhancing treatment on this body weight reduction effect as is observed with dopamine D2 receptor agonists (FIG. 15).

[3] = system: male mice fed a high fat diet; assay: GBR versus bupropion in high fat diet mice (Example 11)
Method: The effect of increasing central dopamine neuronal activity versus increasing central dopamine plus norepinephirne neuronal activity on body fat, blood glucose, plasma insulin, and insulin sensitivity was studied in male mice fed a high fat diet from 4 weeks of age until 24 weeks of age. These mice were maintained on this high fat diet while treated with either GBR (20 mg/kg) (a selective dopamine reuptake inhibitor) or bupropion (20 mg/kg) (a dopamine and norepinpehrine reuptake inhibitor) at doses that approximate their 50% maximal effective dose for these functions in vivo in rodents.

[4] = system: obese, diabetic female ob/ob mice; assay: Fusaric acid and SKF 38393, alone and combined, 14 days in ob/ob mice (Example 4); settings: fusaric acid 15 mg/kg, SKF 38393 10 mg/kg, once daily 14 days, day 15, controls 380+/−30
Method: Fusaric acid is a dopamine beta hydroxylase inhibitor that reduces noradrenaline synthesis in noradrenergic neurons. It is not present in dopaminergic neurons and thus exerts no such effect there. SKF38393 is a post-synaptic dopamine D1 receptor agonist with no marked influence on noradrenergic neurons. A study was conducted to determine the interactive effects of fusaric acid plus SKF 38393 on body fat store levels, and blood glucose and plasma triglyceride levels in ob/ob mice. The ob/ob mouse is hyperphagic, obese, insulin resistant, diabeteic and dyslipidemic due to the absence of functional leptin as a result of a mutation in this gene.
Obese, diabetic female ob/ob mice (body weight of approximately 33 g) maintained on 14 hour daily photoperiods, housed one per cage and allowed to feed ad libitum were randomized to once daily treatment with either fusaric acid (15 mg/kg; n=6-8), SKF 38393 (10 mg/kg; n=6-8), both fusaric acid (15 mg/kg) and SKF 38393 (10 mg/kg) (n=6-8), or vehicle (control group; n=6-8) for a 14 day period. On the fifteenth day of the study and approximately 24 hours after the final treatment animals were sacrificed and blood samples were obtained for the analyses of blood glucose, plasma free fatty acid and triglyceride levels. […]

CCCN1CCC[C@@H]2Cc3nc(N)ncc3C[C@H]21 [Q]
change from baseline body weight (weight loss) ([1]; at 13 hours after light onset for 17 days, FIGS. 1 and 2): regained weight loss to baseline values by treatment end

Cl.Cl.Fc1ccc(C(OCCN2CCN(CCCc3ccccc3)CC2)c2ccc(F)cc2)cc1 [GBR 12909, 1-(2-[bis(4-Fluorophenyl)methoxy]ethyl)-4-(3-phenylpropyl)piperazine dihydrochloride]
blood glucose level [2]: no significant effect
reducing plasma insulin ([3]; GBR 20 mg/kg versus bupropion 20 mg/kg, equal dose): much more effective
body fat ([3]; GBR 20 mg/kg, compared to vehicle and bupropion 20 mg/kg, FIG. 17): significantly reduced

CCCCc1ccc(C(=O)O)nc1 [fusaric acid, 5-butyl-2-pyridinecarboxylic acid]
plasma C-reactive protein levels ([1]; 17 days, relative to vehicle): no significant effect

Cl.Oc1cc2c(cc1O)C(c1ccccc1)CNCC2 (stereo not drawn) [SKF 38393, 1-phenyl-7,8-dihydroxy-2,3,4,5-tetrahydro-1H-3-benzazepine hydrochloride]
blood glucose [4]: 290 ± 55 mg/dL
